Patent publication US8952024B2, “Herbicidal pyrimidone derivatives” (E I du Pont de Nemours and Company, priority 2009, dated 2015)

What was measured:
Assay type in all cases: in vivo
[1] = test system: barnyardgrass (Echinochloa crus-galli); experiment: Test B flooded paddy test; settings: for Plant response rating, Barnyardgrass: Flood (flooded paddy test), 13 to 15 days
Outline: (§1)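 Post-flood paddy application: compounds are introduced into water 3 cm deep over the soil, reaching plants at the 2-leaf stage. The water level is maintained, and after 13–15 days under greenhouse conditions, response is judged by eye relative to controls, where 100 means complete control.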

rice (Oryza sativa) = experiment: Test B flooded paddy test; settings: for Plant response rating, Rice: Flood (flooded paddy test), 13 to 15 days
Outline: as §1

[2] = test system: ducksalad (Heteranthera limosa); experiment: Test B flooded paddy test; settings: for Plant response rating, Ducksalad: Flood (flooded paddy test), 13 to 15 days
Outline: as §1

[3] = test system: umbrella sedge (Cyperus difformis); experiment: Test B flooded paddy test; settings: for Plant response rating, Sedge, Umbrella: Flood (flooded paddy test), 13 to 15 days
Outline: as §1

soybean (Glycine max) = experiment: Test B pre-/postemergence plant response
Outline: (§2)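 Test compounds, formulated in a non-phytotoxic solvent mixture with surfactant, are applied to the soil surface (loam and sand blend) right after seeding, or sprayed over plants at the 1- to 4-leaf stage grown in peat moss/vermiculite medium. After 13 to 15 days under glasshouse conditions, each species is scored visually from 0 (no effect) to 100 (complete control) against controls.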

[4] = test system: johnsongrass (Sorghum halepense); experiment: Test B pre-/postemergence plant response
Outline: as §2

[5] = test system: green foxtail (Setaria viridis); experiment: Test B pre-/postemergence plant response
Outline: as §2

kochia (Kochia scoparia) = experiment: Test B pre-/postemergence plant response; settings: Postemergence
Outline: as §2

[6] = test system: giant foxtail (Setaria faberii); experiment: Test B pre-/postemergence plant response
Outline: as §2

[7] = test system: ragweed (common ragweed, Ambrosia elatior); experiment: Test B pre-/postemergence plant response
Outline: as §2

[8] = test system: pigweed (Amaranthus retroflexus); experiment: Test B pre-/postemergence plant response
Outline: as §2

[9] = test system: bermudagrass (Cynodon dactylon); experiment: Test B pre-/postemergence plant response
Outline: as §2

[10] = test system: cocklebur (Xanthium strumarium); experiment: Test B pre-/postemergence plant response; settings: Preemergence
Outline: as §2

wild oat (Avena fatua) = experiment: Test B pre-/postemergence plant response
Outline: as §2

corn (Zea mays) = experiment: Test B pre-/postemergence plant response
Outline: as §2

[11] = test system: lambsquarters (Chenopodium album); experiment: Test B pre-/postemergence plant response
Outline: as §2

[12] = 250 g ai/ha, flooded paddy test, visual rating on 0 to 100 scale (0 no effect, 100 complete control) after 13 to 15 days
[13] = 62 g ai/ha, scale of 0 to 100 where 0 is no effect and 100 is complete control
[14] = 125 g ai/ha, scale 0 to 100, 0 is no effect, 100 is complete control
[15] = Flood, 31 g ai/ha, scale 0 to 100 (0 no effect, 100 complete control)
[16] = Postemergence, 31 g ai/ha, 0 to 100 scale (0 no effect, 100 complete control)
[17] = Postemergence, 250 g ai/ha, scale 0 to 100 (0 no effect, 100 complete control), 13 to 15 days
[18] = Postemergence, 62 g ai/ha, scale 0 to 100 (0 no effect, 100 complete control)
[19] = Preemergence, 62 g ai/ha, scale 0 to 100, 0 no effect, 100 complete control
[20] = Preemergence, 125 g ai/ha, scale 0 to 100, 0 no effect, 100 complete control
[21] = Preemergence, 250 g ai/ha, 0 to 100 scale
[22] = Postemergence, 125 g ai/ha, scale 0 to 100 (0 no effect, 100 complete control)
[23] = Preemergence, 31 g ai/ha, scale 0 to 100 (0 no effect, 100 complete control)

CCc1cccc(-n2c(-c3ccccc3)ncc(C(=O)C3=C(O)CCCC3=O)c2=O)c1 [Compound 220]
Plant response rating, Flood, Barnyardgrass [1, 12]: 40
Plant response rating, Barnyardgrass [1, 13]: 0
Plant response rating, Barnyardgrass [1, 14]: 30
Barnyardgrass plant response rating [1, 15]: 0
Plant response rating, Flood, Rice (rice (Oryza sativa); [12]): 70
Plant response rating, Rice (rice (Oryza sativa); [13]): 15
Plant response rating, Rice (rice (Oryza sativa); [14]): 50
Rice plant response rating (rice (Oryza sativa); [15]): 0
Plant response rating, Flood, Ducksalad [2, 12]: 100
Plant response rating, Ducksalad [2, 13]: 40
Plant response rating, Ducksalad [2, 14]: 85
Ducksalad plant response rating [2, 15]: 30
Plant response rating, Flood, Sedge, Umbrella [3, 12]: 85
Plant response rating, Sedge, Umbrella [3, 13]: 0
Plant response rating, Sedge, Umbrella [3, 14]: 20
Sedge, Umbrella plant response rating [3, 15]: 0
Plant response rating, Soybean (soybean (Glycine max); [16]): 80
Plant response rating, Soybean (soybean (Glycine max); [17]): 100
Plant response rating, Soybean (soybean (Glycine max); [18]): 85
Plant response rating, Soybean (soybean (Glycine max); [19]): 0
Plant response rating, Soybean (soybean (Glycine max); [20]): 0
Soybean plant response rating (soybean (Glycine max); [21]): 75
Plant response rating, Johnsongrass [4, 16]: 60
Plant response rating, Johnsongrass [4, 22]: 80
Plant response rating, Johnsongrass [4, 17]: 90
Plant response rating, Johnsongrass [4, 18]: 65
Plant response rating, Johnsongrass [4, 23]: 0
Plant response rating, Johnsongrass [4, 19]: 0
Plant response rating, Johnsongrass [4, 20]: 0
Johnsongrass plant response rating [4, 21]: 80
Plant response rating, Foxtail, Green [5, 16]: 60
Plant response rating, Foxtail, Green [5, 22]: 80
Plant response rating, Foxtail, Green [5, 17]: 90
Plant response rating, Foxtail, Green [5, 18]: 65
Plant response rating, Foxtail, Green [5, 23]: 80
Plant response rating, Foxtail, Green [5, 19]: 90
Foxtail, Green plant response rating [5, 21]: 100
Plant response rating, Kochia (kochia (Kochia scoparia); 31 g ai/ha, 0 to 100 scale (0 no effect, 100 complete control)): 45
Plant response rating, Kochia (kochia (Kochia scoparia); 125 g ai/ha, scale 0 to 100 (0 no effect, 100 complete control)): 75
Plant response rating, Kochia (kochia (Kochia scoparia); 250 g ai/ha, scale 0 to 100 (0 no effect, 100 complete control), 13 to 15 days): 100
Plant response rating, Kochia (kochia (Kochia scoparia); 62 g ai/ha, scale 0 to 100 (0 no effect, 100 complete control)): 65
Plant response rating, Foxtail, Giant [6, 16]: 30
Plant response rating, Foxtail, Giant [6, 22]: 55
Plant response rating, Foxtail, Giant [6, 17]: 95
Plant response rating, Foxtail, Giant [6, 18]: 50
Plant response rating, Foxtail, Giant [6, 23]: 0
Plant response rating, Foxtail, Giant [6, 19]: 0
Plant response rating, Foxtail, Giant [6, 20]: 0
Foxtail, Giant plant response rating [6, 21]: 75
Plant response rating, Ragweed [7, 16]: 90
Plant response rating, Ragweed [7, 17]: 98
Plant response rating, Ragweed [7, 18]: 95
Plant response rating, Ragweed [7, 23]: 15
Plant response rating, Ragweed [7, 19]: 60
Plant response rating, Ragweed [7, 20]: 80
Ragweed plant response rating [7, 21]: 95
Plant response rating, Pigweed [8, 16]: 95
Plant response rating, Pigweed [8, 17]: 100
Plant response rating, Pigweed [8, 18]: 100
Plant response rating, Pigweed [8, 23]: 100
Plant response rating, Pigweed [8, 19]: 100
Plant response rating, Pigweed [8, 20]: 100
Pigweed plant response rating [8, 21]: 100
Plant response rating, Bermudagrass [9, 16]: 80
Plant response rating, Bermudagrass [9, 22]: 98
Plant response rating, Bermudagrass [9, 17]: 100
Plant response rating, Bermudagrass [9, 18]: 95
Plant response rating, Bermudagrass [9, 23]: 80
Plant response rating, Bermudagrass [9, 19]: 98
Plant response rating, Bermudagrass [9, 20]: 98
Bermudagrass plant response rating ([9]; Preemergence, 250 g ai/ha, 0 to 100 scale, 0 no effect, 100 complete control): 100
Plant response rating, Cocklebur ([10]; 31 g ai/ha, scale 0 to 100 (0 no effect, 100 complete control)): 0
Plant response rating, Cocklebur ([10]; 62 g ai/ha, scale 0 to 100, 0 no effect, 100 complete control): 0
Cocklebur plant response rating ([10]; 250 g ai/ha, 0 to 100 scale): 0
Plant response rating, Oat, Wild (wild oat (Avena fatua); [16]): 10
Plant response rating, Oat, Wild (wild oat (Avena fatua); [17]): 50
Plant response rating, Oat, Wild (wild oat (Avena fatua); [18]): 20
Plant response rating, Oat, Wild (wild oat (Avena fatua); [19]): 0
Plant response rating, Oat, Wild (wild oat (Avena fatua); [20]): 0
Oat, Wild plant response rating (wild oat (Avena fatua); [21]): 60
Plant response rating, Corn (corn (Zea mays); [16]): 25
Plant response rating, Corn (corn (Zea mays); [22]): 55
Plant response rating, Corn (corn (Zea mays); [17]): 75
Plant response rating, Corn (corn (Zea mays); [18]): 50
Plant response rating, Corn (corn (Zea mays); [23]): 0
Plant response rating, Corn (corn (Zea mays); [19]): 0
Plant response rating, Corn (corn (Zea mays); [20]): 0
Corn plant response rating (corn (Zea mays); [21]): 0
Plant response rating, Lambsquarters [11, 16]: 100
Plant response rating, Lambsquarters [11, 22]: 100
Plant response rating, Lambsquarters [11, 17]: 100
Plant response rating, Lambsquarters [11, 18]: 100
Plant response rating, Lambsquarters [11, 23]: 100
Plant response rating, Lambsquarters [11, 19]: 100
Plant response rating, Lambsquarters [11, 20]: 100
Lambsquarters plant response rating [11, 21]: 100
